Assays:
Assay in all cases: relative viability (nuclei count vs DMSO), 5 days (fraction); higher = more cells survive
[1] = compound: CCOC(=O)CCNc1cc(N2CCc3ccccc3CC2)nc(-c2ccccn2)n1 [GSK-J4] + C[C@]1(O)C[C@@H](c2nc(-c3ccc4ccc(-c5ccccc5)nc4c3)c3c(N)nccn32)C1 [Linsitinib] (partner 1 µM)
Summary of the method: (§1)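 Cells from lung cancer lines were seeded into 1536-well plates and, one day later, dosed by pin tool. Treatments were either a single drug or a fixed dose of an anchor drug with five library-drug doses (not always all listed) in √10 steps. After 5 days, nuclei were stained in a one-step fixation (final 0.05% Triton X-100, 1% formaldehyde, 1 ug/ml Hoechst) and counted on 4× images, and relative viability is the treated-to-vehicle nuclei ratio, as the median of duplicate plates.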

[2] = compound: CN1CCC(CC1)OC2=CC(=C(C=C2)NC3=NC=C4C(=N3)N(C(=O)N4C)C5CCCC5)OC [AZ3146] + Cc1nc(Nc2ncc(C(=O)Nc3c(C)cccc3Cl)s2)cc(N2CCN(CCO)CC2)n1 [Dasatinib] (partner 0.075 µM)
Summary of the method: as §1

[3] = compound: CCOC(=O)CCNc1cc(N2CCc3ccccc3CC2)nc(-c2ccccn2)n1 [GSK-J4] + CC(C)C[C@H](NC(=O)[C@H](Cc1ccccc1)NC(=O)c1cnccn1)B(O)O [Bortezomib] (partner 0.002 µM)
Summary of the method: as §1

[4] = compound: CN1CCC(CC1)OC2=CC(=C(C=C2)NC3=NC=C4C(=N3)N(C(=O)N4C)C5CCCC5)OC [AZ3146] + CC(=O)c1c(C)c2cnc(Nc3ccc(N4CCNCC4)cn3)nc2n(C2CCCC2)c1=O [Palbociclib] (partner 0.5 µM)
Summary of the method: as §1

Cell Line | relative viability ([1]; first compound 0.5 µM) | relative viability ([1]; first compound 1.581 µM) | relative viability ([1]; first compound 5 µM) | relative viability ([1]; first compound 15.81 µM) | relative viability ([1]; first compound 50 µM) | relative viability ([2]; first compound 0.08 µM) | relative viability ([2]; first compound 0.253 µM) | relative viability ([2]; first compound 0.8 µM) | relative viability ([2]; first compound 2.53 µM) | relative viability ([2]; first compound 8 µM) | relative viability ([3]; first compound 0.5 µM) | relative viability ([3]; first compound 1.581 µM) | relative viability ([3]; first compound 5 µM) | relative viability ([3]; first compound 15.81 µM) | relative viability ([3]; first compound 50 µM) | relative viability ([4]; first compound 0.08 µM) | relative viability ([4]; first compound 0.253 µM) | relative viability ([4]; first compound 0.8 µM) | relative viability ([4]; first compound 2.53 µM) | relative viability ([4]; first compound 8 µM)
201T | 1.02 | 1.08 | 1.1 | 1.04 | 1.06 | 0.548 | 0.59 | 0.511 | 0.609 | 0.625 | 1.03 | 1.08 | 1.05 | 1.14 | 1.09 | 0.327 | 0.359 | 0.382 | 0.348 | 0.347
A549 | 0.559 |  | 0.733 | 0.442 | 0.578 |  |  |  |  |  |  |  |  |  |  |  |  |  |  | 
A-427 | 1.07 |  | 1.14 | 1.11 | 0.94 | 0.561 | 0.775 | 0.651 | 0.828 | 0.66 | 0.937 |  | 0.839 | 0.781 | 0.789 | 0.482 | 0.521 | 0.497 | 0.493 | 0.463
ABC-1 | 0.788 | 0.632 | 1.07 | 0.802 | 0.378 | 0.493 | 0.56 | 0.562 | 0.713 | 0.421 | 0.329 | 0.246 | 0.258 | 0.328 | 0.327 | 0.432 | 0.736 | 0.751 | 0.851 | 0.573
BEN | 0.91 | 0.706 |  | 0.925 | 0.823 |  | 0.228 | 0.353 | 0.322 | 0.362 | 0.898 | 0.719 |  | 0.857 | 0.735 |  | 0.47 | 0.511 | 0.479 | 0.471
CAL-12T | 0.856 | 0.776 | 0.776 | 0.742 | 0.648 | 0.453 | 0.517 | 0.369 | 0.377 | 0.192 | 1.06 | 0.834 | 0.785 | 1.01 | 0.941 | 0.391 | 0.502 | 0.45 | 0.523 | 0.229
COR-L23 | 0.909 | 0.933 |  | 0.868 | 0.807 | 0.425 | 0.527 | 0.509 | 0.457 | 0.313 | 0.944 | 0.815 |  | 1.01 | 0.729 | 0.244 | 0.351 | 0.328 | 0.321 | 0.278
COR-L 105 | 0.985 | 0.572 | 0.91 | 1.06 | 0.99 | 0.394 | 0.261 | 0.238 | 0.288 | 0.191 | 0.851 | 0.521 | 0.605 | 0.734 | 0.856 | 0.408 | 0.365 | 0.377 | 0.346 | 0.372
Calu-6 | 0.868 | 0.924 | 0.719 | 0.927 | 0.869 |  |  |  |  |  | 0.884 | 0.912 | 1.08 | 1.13 | 0.898 |  |  |  |  | 
ChaGo-K-1 |  |  |  |  |  | 0.614 | 0.554 | 0.512 | 0.6 | 0.45 | 1.21 |  | 0.913 | 0.972 | 0.931 | 0.935 | 0.927 | 0.894 | 0.896 | 0.862
EBC-1 | 0.937 | 0.758 | 0.789 | 0.795 | 0.709 |  |  |  |  |  | 0.436 | 0.526 | 0.441 | 0.61 | 0.346 |  |  |  |  | 
EKVX | 0.928 | 0.832 | 1.16 | 0.836 | 0.902 | 0.434 | 0.572 | 0.5 | 0.565 | 0.535 | 0.981 | 0.961 | 1.28 | 1.01 | 0.963 | 0.406 | 0.373 | 0.284 | 0.431 | 0.368
EMC-BAC-2 | 0.781 | 0.728 | 0.83 | 0.715 | 0.794 | 0.273 | 0.366 | 0.38 | 0.372 | 0.354 | 1.08 | 0.944 | 0.811 | 0.965 | 1.08 | 0.466 | 0.519 | 0.555 | 0.53 | 0.514
EPLC-272H | 1.16 |  | 1.31 | 1.02 | 1.11 |  | 0.396 | 0.347 | 0.413 | 0.287 | 0.864 |  | 1.01 | 0.851 | 0.936 | 0.327 | 0.342 | 0.309 | 0.338 | 0.27
H3255 | 0.902 | 0.952 | 0.838 | 0.84 | 0.707 | 0.258 | 0.242 | 0.339 | 0.374 | 0.405 | 0.858 | 0.632 | 0.655 | 0.579 | 0.603 | 0.331 | 0.294 | 0.311 | 0.344 | 0.332
HARA | 0.891 | 0.608 |  | 0.797 | 0.699 | 0.274 | 0.211 | 0.254 | 0.217 | 0.302 | 1.1 | 1 |  | 1.09 | 1.08 | 0.274 | 0.239 | 0.266 | 0.241 | 0.243
HCC-15 | 0.845 | 0.793 | 0.892 | 0.785 | 0.629 | 0.727 | 0.64 | 0.597 | 0.557 | 0.491 | 1.01 | 0.527 | 0.943 | 1.01 | 0.906 | 0.757 | 0.668 | 0.727 | 0.738 | 0.68
HCC-44 | 0.704 | 0.625 | 0.709 | 0.735 | 0.646 |  |  |  |  |  | 0.842 | 0.86 | 0.916 | 0.892 | 0.934 | 0.966 | 0.977 | 1.05 | 0.959 | 0.935
HCC-78 | 0.44 | 0.499 | 0.701 |  | 0.484 | 0.254 | 0.304 | 0.309 | 0.354 | 0.315 | 0.442 | 0.509 | 0.565 | 0.422 | 0.491 | 0.486 | 0.483 | 0.414 | 0.54 | 0.425

— the supplement of paper PMC10307832
